The record followed here is USRE46630E1, “Substituted 4-pyridones and their use as inhibitors of neutrophil elastase activity” (Boehringer Ingelheim International GmbH, priority 2012, dated 2017).

This test has as its target T1, Human neutrophil elastase (Homo sapiens, UniProt P08246).
T1 construct: purchased Calbiochem 324681
T1 sequence (P08246 30-267): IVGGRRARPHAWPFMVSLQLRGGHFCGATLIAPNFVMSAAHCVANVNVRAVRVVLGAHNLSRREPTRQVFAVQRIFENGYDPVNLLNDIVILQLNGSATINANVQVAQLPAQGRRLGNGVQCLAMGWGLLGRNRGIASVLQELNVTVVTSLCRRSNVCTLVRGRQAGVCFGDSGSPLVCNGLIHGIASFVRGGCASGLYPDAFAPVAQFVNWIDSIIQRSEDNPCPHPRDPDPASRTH
Put plainly: Human Neutrophil Elastase Assay. The class given is biochemical. As to conditions: Neutrophil Elastase assay; substrate MeOSuc-Ala-Ala-Pro-Val-AMC 250 μM; 15 min preincubation, 60 min incubation at room temperature; pH 7.5. The method, boiled down: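 Run in 100 mM Tris, 500 mM NaCl, pH 7.5 with 0.01% BSA, with compounds prediluted in DMSO then buffer (5% DMSO final). Fluorescence was read at 380 nm excitation/460 nm emission after enzyme inactivation. Values were normalised to inactivated-enzyme (0%) and uninhibited-enzyme (100%) controls.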

pIC50: −log10 of the molar value.

The term pIC50 denotes the IC50 on a negative log10 scale, so that one unit is a factor of ten. `Cc1c(-c2ccnc(C(F)(F)F)c2)c(=O)c(C(=O)NC2COCC2O)cn1C(C)c1ccc(C#N)cc1` (centres unmarked) [Example 9.42] showed a negative-log IC50 (pIC50) of 7.52.
In turn, `Cc1c(-c2ccnc(C(F)(F)F)c2)c(=O)c(C(=O)NCC(F)(F)F)cn1C(C)c1ccc(C#N)cc1` (centres unmarked) [Example 9.43] gave a negative logarithm of the IC50 (pIC50) of 7.94.
On to `Cc1c(-c2ccnc(C(F)(F)F)c2)c(=O)c(C(=O)NCCF)cn1C(C)c1ccc(C#N)cc1` (centres unmarked) [Example 9.44], for which the negative logarithm of the IC50 (pIC50) is 8.01.
In turn, `Cc1c(-c2ccnc(C(F)(F)F)c2)c(=O)c(C(=O)NC2(C#N)CC2)cn1C(C)c1ccc(C#N)cc1` (centres unmarked) [Example 9.45] gave a pIC50 of 8.28.
`Cc1c(-c2ccnc(C(F)(F)F)c2)c(=O)c(C(=O)NC(C)(C)C#N)cn1C(C)c1ccc(C#N)cc1` (centres unmarked) [Example 9.46] had a negative-log IC50 (pIC50) of 7.03.
For `Cc1c(-c2ccnc(C(F)(F)F)c2)c(=O)c(C(=O)NCC2CC(O)C2)cn1C(C)c1ccc(C#N)cc1` (centres unmarked) [Example 9.47], the negative-log IC50 (pIC50) was 7.83.
`Cc1c(-c2ccnc(C(F)(F)F)c2)c(=O)c(C(=O)NCC2CC(O)C2)cn1C(C)c1ccc(C#N)cc1` (centres unmarked) [Example 9.48] showed a pIC50 of 7.76.
The molecule `COCC(C)(C#N)NC(=O)c1cn(C(C)c2ccc(C#N)cc2)c(C)c(-c2ccnc(C(F)(F)F)c2)c1=O` (centres unmarked) [Example 9.49] showed a negative logarithm of the IC50 (pIC50) of 6.82.
Regarding `Cc1c(-c2ccnc(C(F)(F)F)c2)c(=O)c(C(=O)NC(C)C#N)cn1C(C)c1ccc(C#N)cc1` (centres unmarked) [Example 9.50], the negative-log IC50 (pIC50) was 8.34.
`C=CCNC(=O)c1cn(C(C)c2ccc(C#N)cc2)c(C)c(-c2ccnc(C(F)(F)F)c2)c1=O` (centres unmarked) [Example 9.51]: the negative logarithm of the IC50 (pIC50) is 8.22.
For `Cc1c(-c2ccnc(C(F)(F)F)c2)c(=O)c(C(=O)NCC(C)(C)C)cn1C(C)c1ccc(C#N)cc1` (centres unmarked) [Example 9.52] the value was 6.38.
The molecule `Cc1c(-c2ccnc(C(F)(F)F)c2)c(=O)c(C(=O)NCC(C)C)cn1C(C)c1ccc(C#N)cc1` (centres unmarked) [Example 9.53] showed a pIC50 of 7.64.
For the molecule `Cc1c(-c2ccnc(C(F)(F)F)c2)c(=O)c(C(=O)NCCC#N)cn1C(C)c1ccc(C#N)cc1` (centres unmarked) [Example 9.54], the pIC50 is 8.39.
In turn, `CCNC(=O)c1cn(C(C)c2ccc(C#N)cc2)c(C)c(-c2ccnc(C(F)(F)F)c2)c1=O` (centres unmarked) [Example 9.56] showed a pIC50 of 8.21.
For `COCCNC(=O)c1cn(C(C)c2ccc(C#N)cc2)c(C)c(-c2ccnc(C(F)(F)F)c2)c1=O` (centres unmarked) [Example 9.57], the pIC50 is 8.28. The pIC50 values of the last two molecules are within 0.2 log units of each other.
`CCOCCNC(=O)c1cn(C(C)c2ccc(C#N)cc2)c(C)c(-c2ccnc(C(F)(F)F)c2)c1=O` (centres unmarked) [Example 9.58] had a pIC50 of 8.27.
For the molecule `COCCCNC(=O)c1cn(C(C)c2ccc(C#N)cc2)c(C)c(-c2ccnc(C(F)(F)F)c2)c1=O` (centres unmarked) [Example 9.59], the pIC50 is 8.12.
`Cc1c(-c2ccnc(C(F)(F)F)c2)c(=O)c(C(=O)NCCC(C)O)cn1C(C)c1ccc(C#N)cc1` (centres unmarked) [Example 9.60]: the negative-log IC50 (pIC50) is 8.24.
In the case of `Cc1c(-c2ccnc(C(F)(F)F)c2)c(=O)c(C(=O)NCC(C)O)cn1C(C)c1ccc(C#N)cc1` (centres unmarked) [Example 9.61] it was 8.07; in that of `Cc1c(-c2ccnc(C(F)(F)F)c2)c(=O)c(C(=O)NCC(C)O)cn1C(C)c1ccc(C#N)cc1` (centres unmarked) [Example 9.62], 7.92.
On to `Cc1c(-c2ccnc(C(F)(F)F)c2)c(=O)c(C(=O)NCC(C)(C)O)cn1C(C)c1ccc(C#N)cc1` (centres unmarked) [Example 9.63], for which the pIC50 is 7.43.
Regarding `Cc1c(-c2cccc(C(F)(F)F)c2)c(=O)c(C(=O)NCC[N+](C)(C)C)cn1Cc1ccc(C#N)cc1` [Example 12.1, (2-{[1-(4-Cyano-benzyl)-6-methyl-4-oxo-5-(3-trifluoromethyl-phenyl)-1,4-dihydro-pyridine-3-carbonyl]-amino}-ethyl)-trimethyl-ammonium chloride], the pIC50 is 7.44.
Take `Cc1c(-c2cccc(C(F)(F)F)c2)c(=O)c(C(=O)NCCC[N+](C)(C)C)cn1Cc1ccc(C#N)cc1` [Example 12.2, (3-{[1-(4-Cyano-benzyl)-6-methyl-4-oxo-5-(3-trifluoromethyl-phenyl)-1,4-dihydro-pyridine-3-carbonyl]-amino}-propyl)-trimethyl-ammonium chloride]: the pIC50 is 7.31.
For `Cc1c(-c2cccc(C(F)(F)F)c2)c(=O)c(C(=O)NCC2CC[N+](C)(C)CC2)cn1Cc1ccc(C#N)cc1` [Example 12.3, 4-({[1-(4-Cyano-benzyl)-6-methyl-4-oxo-5-(3-trifluoromethyl-phenyl)-1,4-dihydro-pyridine-3-carbonyl]-amino}-methyl)-1,1-dimethyl-piperidinium chloride] the value was 7.22; for `Cc1c(-c2cccc(C(F)(F)F)c2)c(=O)c(C(=O)NCC2CCN(C(=O)C[N+](C)(C)C)CC2)cn1Cc1ccc(C#N)cc1` [Example 12.4, {2-[4-({[1-(4-Cyano-benzyl)-6-methyl-4-oxo-5-(3-trifluoromethyl-phenyl)-1,4-dihydro-pyridine-3-carbonyl]-amino}-methyl)-piperidin-1-yl]-2-oxo-ethyl}-trimethyl-ammonium chloride], 7.84.
In the case of `CS(=O)(=O)c1ccc(CNC(=O)c2cn(Cc3ccc(C#N)cc3)cc(-c3cccc(C(F)(F)F)c3)c2=O)cc1` [Example 13.1, 1-(4-Cyano-benzyl)-4-oxo-5-(3-trifluoromethyl-phenyl)-1,4-dihydro-pyridine-3-carboxylic acid 4-methanesulfonyl-benzylamide] it was 8.18; in that of `CS(=O)(=O)c1ccc(CNC(=O)c2cn(Cc3ccc(C#N)cc3)cc(-c3cccc(C(F)(F)F)c3)c2=O)nc1` [Example 13.2, 1-(4-Cyano-benzyl)-4-oxo-5-(3-trifluoromethyl-phenyl)-1,4-dihydro-pyridine-3-carboxylic acid (5-methanesulfonyl-pyridin-2-ylmethyl)-amide], 8.28; in that of `Cc1c(-c2cccc(C(F)(F)F)c2)c(=O)c(C(=O)NCc2ccc(S(C)(=O)=O)c[n+]2[O-])cn1Cc1ccc(C#N)cc1` [Example 14, Pyridin-N-oxide of example 4.1], above 9.00.
`CNC(=O)c1cn(C(C)c2ccc(C#N)cn2)c(C)c(-c2cccc(C(F)F)c2)c1=O` (centres unmarked) [Example 16, 1-[1-(5-Cyano-pyridin-2-yl)-ethyl]-5-(3-difluoromethyl-phenyl)-6-methyl-4-oxo-1,4-dihydro-pyridine-3-carboxylic acid methylamide] had a negative logarithm of the IC50 (pIC50) of 8.00.
For `CCNC(=O)c1cn(C(C)c2ccc(C#N)cn2)c(C)c(-c2cccc(C(F)(F)F)c2)c1=O` (centres unmarked) [Example 17, 1-[1-(5-Cyano-pyridin-2-yl)-ethyl]-6-methyl-4-oxo-5-(3-trifluoromethyl-phenyl)-1,4-dihydro-pyridine-3-carboxylic acid ethylamide] the value was 8.35; for `CCNC(=O)c1cn(C(C)c2ccc(C#N)cn2)c(C)c(-c2cccc(C(F)F)c2)c1=O` (centres unmarked) [Example 18, 1-[1-(5-Cyano-pyridin-2-yl)-ethyl]-5-(3-difluoromethyl-phenyl)-6-methyl-4-oxo-1,4-dihydro-pyridine-3-carboxylic acid ethylamide], 8.27.
In the case of `CCNC(=O)c1cn(C(C)c2ccc(C#N)cn2)c(C)c(-c2ccnc(C(F)(F)F)c2)c1=O` (centres unmarked) [Example 19, 1-[1-(5-Cyano-pyridin-2-yl)-ethyl]-2-methyl-4-oxo-2′-trifluoromethyl-1,4-dihydro-[3,4′]bipyridinyl-5-carboxylic acid ethylamide] it was 7.65; in that of `CNC(=O)c1cn(Cc2ccc(C#N)cc2S(C)(=O)=O)c(C)c(-c2cccc(C(F)(F)F)c2)c1=O` [Example 20], 8.07.
In turn, `CCNC(=O)c1cn(Cc2ccc(C#N)cc2S(C)(=O)=O)c(C)c(-c2cccc(C(F)(F)F)c2)c1=O` [Example 21] had a pIC50 of 8.34.
For `Cc1nnc(CNC(=O)c2cn(Cc3ccc(C#N)cc3S(C)(=O)=O)c(C)c(-c3cccc(C(F)(F)F)c3)c2=O)o1` [Example 22] the value was 8.55.
For `Cc1c(-c2cccc(C(F)(F)F)c2)c(=O)c(C(=O)NCCCO)cn1Cc1ccc(C#N)cc1S(C)(=O)=O` [Example 23] the value was 8.36.
In the case of `Cc1noc(CNC(=O)c2cn(Cc3ccc(C#N)cc3S(C)(=O)=O)c(C)c(-c3cccc(C(F)(F)F)c3)c2=O)n1` [Example 24], the negative-log IC50 (pIC50) is 8.32.
Consider `CCCS(=O)(=O)c1cc(C#N)ccc1Cn1cc(C(=O)NC)c(=O)c(-c2cccc(C(F)(F)F)c2)c1C` [Example 25, 1-[4-Cyano-2-(propane-1-sulfonyl)-benzyl]-6-methyl-4-oxo-5-(3-trifluoromethyl-phenyl)-1,4-dihydro-pyridine-3-carboxylic acid methylamide], for which the pIC50 was 7.85. Against the preceding molecule, the pIC50 is 0.47 log units lower.
In the case of `CCS(=O)(=O)c1cc(C#N)ccc1Cn1cc(C(=O)NC)c(=O)c(-c2cccc(C(F)(F)F)c2)c1C` [Example 26] it was 7.97; in that of `CNC(=O)c1cn(Cc2ccc(C#N)cc2S(=O)(=O)C2CC2)c(C)c(-c2cccc(C(F)(F)F)c2)c1=O` [Example 27], 8.09.
Molecule `CNC(=O)c1cn(C(C)c2ccc(C#N)cc2)c(C)c(-c2ccc(F)c(C(F)F)c2)c1=O` (centres unmarked) [Example 28] had a pIC50 of 7.88.
Molecule `CNC(=O)c1cn(C(C)c2ccc(C#N)cc2)c(C)c(-c2cccc(C)c2)c1=O` (centres unmarked) [Example 29] gave a negative logarithm of the IC50 (pIC50) of 7.84.
Molecule `CNC(=O)c1cn(C(C)c2ccc(C#N)cc2)c(C)c(-c2ccc(F)c(C(F)(F)F)c2)c1=O` (centres unmarked) [Example 30] had a pIC50 of 8.28.
Turning to `CNC(=O)c1cn(C(C)c2ccc(C#N)cc2)c(C)c(-c2cccc(CF)c2)c1=O` (centres unmarked) [Example 31, 1-[1-(4-Cyano-phenyl)-ethyl]-5-(3-fluoromethyl-phenyl)-6-methyl-4-oxo-1,4-dihydro-pyridine-3-carboxylic acid methylamide], the negative-log IC50 (pIC50) was 8.11. The pIC50 values of the last two molecules are within 0.2 log units of each other.
